The values that follow are results of earlier work, collected in patent publication US9084801B2, “Use of an omega-3 lipid-based emulsion following ischemic injury to provide protection and recovery in human organs” (THE TRUSTEES OF COLUMBIA UNIVERSITY IN THE CITY OF NEW YORK, priority 2005, dated 2015).

Molecules are shown by their SMILES.

The test system of data set [1] is adult Sprague-Dawley rats, kainate-induced seizures. Conditions: intravenous, given before and/or after neurologic insult.
The test system of data set [2] is adult Sprague-Dawley rats, global ischemia via four vessel occlusion. Conditions: intravenous, given before and/or after neurologic insult.

With `CC/C=C\C/C=C\C/C=C\CCCCCCCC(=O)O` [α-linolenic acid], in data set [1], the “protection in kainate-induced seizures” value is recorded as “protective”. Besides, the “protection in global ischemia” value in data set [2] is reported as “protective”.
